From US8263755B2, “Synthesis of compounds useful as modulators of amyloid-beta production” (Satori Pharmaceuticals, Inc., priority 2006, dated 2012)

Tests used:
[1] = test system: 7W cells (APPwt) and 7PA2 cells (APPV717F); test: method of Wang et al. in 7W cells (APPwt) and 7PA2 cells (APPV717F); type: cell-based
Procedure: (§1) Compounds of the present invention were assayed to determine their effect on the total ration of amyloid-β (1-42) peptide in vitro using an assay protocol substantially similar to that described by Wang et al., J. Biol. Chem. 1996, 50:31894-31902, The Profile of Soluble Amyloid β Protein in Cultured Cell Media, the entirety of which is hereby incorporated herein by reference. This assay quantifies amyloid-β protein using immunoprecipitation and mass spectrometry (IP-MS).
Compound 6 was also assayed according to the method described in Wang et al., in 7W cells (APPwt) and 7PA2 cells (APPV717F). The APP717 mutations increase the relative amount of amyloid-β (1-42) peptide. In this assay, it was shown that compound 6 reduces amyloid-β (1-42) peptide while increasing amyloid-β (1-39) peptide.

[2] = stability experiments in solution; type: physicochemical
Procedure: However, it was stable in slightly acidic solution. Therefore, 2609-165-7 was re-processed on the Luna C8 column using 70% MeOH/30% water containing 0.05% AcOH as eluent to give 3.4 mg of compound 6 (2609-172-11).

amyloid-β (1-42) peptide = test: amyloid-β protein profile by immunoprecipitation and mass spectrometry (IP-MS), protocol of Wang et al.; type: cell-based; conditions: in vitro
Procedure: as §1

CC(=O)O[C@@H]([C@H]1C[C@@H](C)C2=C(O1)[C@H](O)[C@@]1(C)[C@@H]3CC[C@H]4C(C)(C)[C@@H](O[C@@H]5OC[C@@H](O)[C@H](O)[C@H]5O)CC[C@@]45C[C@@]35CC[C@]21C)C(C)(C)O [Compound 6, 24-O-Acetylhydroshengmanol 3-β-D-xylopyranoside (delta-16,17)-enol ether]
effect on amyloid-β (1-39) peptide [1]: increasing | effect on amyloid-β (1-42) peptide [1]: reduces | stability in solution ([2]; MeOH solution which is slightly basic): deacetylation occurred | stability in solution ([2]; slightly acidic solution): stable | effect on amyloid-β (1-37) peptide (amyloid-β (1-42) peptide): increasing | effect on amyloid-β (1-39) peptide (amyloid-β (1-42) peptide): increasing | effect on amyloid-β (1-42) peptide (amyloid-β (1-42) peptide): reduced
